Tests used:
Assay type in all cases: in vivo
[1] = system: Cabbage Looper [Trichoplusia ni (Hubner)]; experiment: Cabbage looper test (CL); conditions: second-instar larvae, 3-5 days, percent in solution
[2] = system: Tobacco Budworm [Heliothis virescens (Fabricius)] eggs; experiment: Tobacco budworm egg test (TBW-E); conditions: percent in solution
Text: Eggs: Paper towel patches of 2-day old eggs of the tobacco budworm were dipped in acetone solutions of the test compound and placed in petri dishes containing a portion of larval rearing medium. […] Test concentrations ranged from 0.1% downward.

[3] = system: Housefly [Musca domestica]; experiment: Housefly insecticidal test (HF); conditions: per 25 female houseflies, 48 hours

SMILES | LC50 CL [1] | LC50 TBW E [2] | LC50 HF [3]
CC(C)C(=Nc1ccc(Br)c(Br)c1)OCc1cccc(Oc2ccccc2)c1 [Compound 252] | 0.0035% | 0.04% | 34 µg
CC(C)C(=Nc1cccc(Cl)c1)OCc1cccc(Oc2ccc(Br)cc2)c1 [Compound 260] | 0.00075% | > 0.1% | 22 µg
CCC(C)C(=Nc1ccc(F)c(Cl)c1)OCc1ccc(F)c(Oc2ccccc2)c1 (stereo not drawn) [Compound 261] | 0.001% | 0.05% | 24 µg
Cc1ccc(Cl)cc1N=C(OCc1cccc(Oc2ccccc2)c1)C(C)C [Compound 263] | 0.05% | > 0.1% | > 100 µg
COc1ccc(Cl)cc1N=C(OCc1cccc(Oc2ccccc2)c1)C(C)C [Compound 264] | 0.03% | > 0.1% | > 100 µg
CC(C)C(=Nc1ccc(F)cc1)OCc1cccc(Oc2ccc(F)c(F)c2)c1 [Compound 265] | 0.00025% | 0.07% | 10 µg
CC(C)C(=Nc1cccc(SC(F)(F)F)c1)OCc1cccc(Oc2ccc(F)cc2)c1 [Compound 272] | 0.0024% | > 0.1% | > 100 µg
CC(C)C(=Nc1ccc2c(c1)OCO2)OCc1cc(Oc2ccc(F)cc2)ccc1Cl [Compound 274] | 0.1% | > 0.1% | > 100 µg
CC(C)C(=Nc1ccc(F)c(F)c1)OCc1cccc(Oc2ccc(Br)cc2)c1 [Compound 275] | 0.00012% | 0.045% | 21 µg
CC(C)C(=Nc1ccc(F)c(Br)c1)OCc1cccc(Oc2ccc(Br)cc2)c1 [Compound 276] | 0.002% | 0.1% | 39 µg
CC(C)C(=Nc1ccc(C2CCCCC2)cc1)OCc1cccc(Oc2ccc(F)cc2)c1 [Compound 280] | 0.024% | > 0.1% | > 100 µg
CC(C)C(=Nc1ccc(C(F)(F)F)cc1)OCc1ccc(F)c(Oc2ccc(F)cc2)c1 [Compound 287] | 0.0025% | > 0.1% | > 100 µg
CC(C)C(=Nc1cccc(OC(F)(F)C(F)F)c1)OCc1cccc(Oc2ccc(F)cc2)c1 [Compound 288] | 0.0015% | > 0.1% | > 100 µg
CCC(CC)C(=Nc1ccc(Cl)cc1)OCc1cccc(Oc2ccc(F)cc2)c1 [Compound 290] | 0.017% | > 0.1% | > 100 µg
CCC(CC)C(=Nc1cccc(C(F)(F)F)c1)OCc1cccc(Oc2ccc(F)cc2)c1 [Compound 291] | 0.004% | > 0.1% | > 100 µg
CC(Br)C(=Nc1ccc(F)c(Cl)c1)OCc1cccc(Oc2ccc(F)cc2)c1 (stereo not drawn) [Compound 305] | 0.048% | > 0.1% | > 100 µg
CC(C)C(=Nc1ccc(C(C)(C)C)c(Cl)c1)OCc1cccc(Oc2ccc(F)cc2)c1 [Compound 308] | 0.009% | > 0.1% | > 100 µg
CC(C)(F)C(=Nc1ccc(F)c(Cl)c1)OCc1cccc(Oc2ccc(F)cc2)c1 [Compound 309] | 0.00017% | 0.07% | > 100 µg
CC(C)C(=Nc1ccc(Cl)cc1Cl)OCc1cccc(Oc2ccccc2)c1 [Compound 311] | 0.0017% | 0.1% | 22 µg
CC(C)C(=Nc1ccc(Cl)cc1Cl)OCc1cccc(Oc2ccc(F)cc2)c1 [Compound 312] | 0.006% | > 0.1% | > 100 µg
CC(C)C(=Nc1ccc2c(c1)OCO2)OCc1ccc(F)c(Oc2ccc(Cl)cc2)c1 [Compound 313] | 0.00025% | 0.013% | > 100 µg
CCC(C)C(=Nc1ccc(C(C)C)cc1)OCc1cccc(Oc2ccccc2)c1 (stereo not drawn) [Compound 317] | 0.0045% | 0.03% | > 100 µg
CC(C)(F)C(=Nc1ccc(F)c(F)c1)OCc1cccc(Oc2ccc(F)cc2)c1 [Compound 318] | 0.0007% | > 0.1% | 19 µg
CC(C)(F)C(=Nc1cccc(C(F)(F)F)c1)OCc1cccc(Oc2ccc(F)cc2)c1 [Compound 319] | 0.0007% | > 0.1% | 44 µg
CCC(=Nc1ccc(C(C)C)cc1)OCc1cccc(Oc2ccc(F)cc2)c1 [Compound 320] | 0.0075% | > 0.1% | > 100 µg
CCC(CC)C(=Nc1ccc(C(C)C)cc1)OCc1cccc(Oc2ccccc2)c1 [Compound 321] | 0.05% | > 0.1% | > 100 µg

SMILES | LC50 CL [1] | LC50 TBW E [2] | LC50 HF [3]
CC(C)c1ccc(N=C(OCc2cccc(Oc3ccc(F)cc3)c2)C(C)(C)C)cc1 [Compound 322] | 0.007% | > 0.1% | > 100 µg
CC(C)C(=Nc1ccc(F)c(Cl)c1)OCc1cc(F)cc(Oc2ccc(F)cc2)c1 [Compound 327] | 0.005% | > 0.1% | > 100 µg
CC(C)C(=Nc1ccc(OC(F)(F)F)c(Cl)c1)OCc1cc(F)cc(Oc2ccc(F)cc2)c1 [Compound 328] | 0.03% | > 0.1% | > 100 µg
CC(C)CC(=Nc1ccc(C(C)C)cc1)OCc1cccc(Oc2ccc(F)cc2)c1 [Compound 329] | 0.033% | > 0.1% | 7 µg
CC(C)C(=Nc1ccc(F)c(Cl)c1)OCc1cccc(Oc2ccc(I)cc2)c1 [Compound 447] | 0.0009% | > 0.1% | 33 µg
CC(C)C(=Nc1ccc(F)c(Cl)c1)OCc1ccc(Cl)c(Oc2ccc(F)cc2)c1 [Compound 448] | 0.003% | 0.03% | 16 µg
Fc1c(F)c(F)c(COC(=Nc2cccc(Cl)c2Cl)C(Cl)Cl)c(F)c1F [Compound 454] | 0.03% | > 0.1% | > 100 µg
Cc1c(COC(=Nc2ccc(Cl)cc2)C(C)C)cccc1-c1ccccc1 [Compound 455] | 0.0025% | > 0.1% | > 100 µg
Cc1c(COC(=Nc2ccc(F)cc2)C(C)C)cccc1-c1ccccc1 [Compound 458] | 0.007% | > 0.05% | 100 µg
CC(C)C(=Nc1ccc2c(c1)OCO2)OCc1c(F)c(F)c(F)c(F)c1F [Compound 464] | 0.08% | > 0.1% | > 100 µg
CC(C)C(=Nc1ccc2c(c1)OCO2)OCc1cccc(Oc2ccccc2)n1 [Compound 467] | 0.003% | 0.04% | 6 µg
CC(C)C(=Nc1ccc2c(c1)OC(C)(C)O2)OCc1cccc(Oc2ccc(Cl)cc2)n1 [Compound 468] | > 0.1% | > 0.1% | 50 µg
CC(C)C(=Nc1cccc(C(F)(F)F)c1)OCc1cccc(Oc2ccncc2)c1 [Compound 469] | 0.02% | > 0.1% | 40 µg
CC(C)C(=Nc1ccc(F)c(Cl)c1)OCc1cccc(Oc2ccncc2)c1 [Compound 470] | 0.02% | > 0.1% | 25 µg
CC(C)C(=Nc1ccc(F)c(Cl)c1)OCc1cccc(OCc2ccccc2)c1 [Compound 472] | 0.0025% | > 0.1% | > 100 µg
CC(C)C(=Nc1ccc(F)c(Cl)c1)OCc1ccc(F)c(Br)c1 [Compound 473] | 0.025% | > 0.1% | > 100 µg
CC(C)C(=Nc1ccc(F)c(Cl)c1)OCc1coc(Cc2ccccc2)c1 [Compound 474] | 0.0012% | > 0.1% | 8 µg
CC(C)C(=Nc1cccc(C(F)(F)F)c1)OCc1ccc(OCc2ccccc2)cc1 [Compound 476] | 0.015% | > 0.1% | > 100 µg
C=CCOc1cccc(COC(=Nc2ccc(Cl)c(Cl)c2)C(C)C)c1 [Compound 481] | 0.015% | > 0.1% | > 100 µg
CC(C)C(=Nc1ccc(Cl)cc1)OCc1coc(Cc2ccccc2)c1 [Compound 484] | 0.003% | > 0.1% | 16 µg
CC(C)C(=Nc1ccc(F)c(F)c1)OCc1coc(Cc2ccccc2)c1 [Compound 485] | > 0.1% | > 0.1% | 24 µg
CC(C)C(=Nc1ccc(F)c(Cl)c1)OCc1ccc(OCc2ccc(F)cc2)cc1 [Compound 487] | 0.023% | > 0.1% | > 100 µg
CC(C)C(=Nc1cccc(C(F)(F)F)c1)OCc1ccc(OCc2ccc(F)cc2)cc1 [Compound 488] | 0.025% | > 0.1% | > 100 µg
CC(C)C(=Nc1cccc(C(F)(F)F)c1)OCc1cccc(OCc2ccc(F)cc2)c1 [Compound 489] | < 0.1% | > 0.1% | > 100 µg
CC(C)C(=Nc1ccc(F)cc1)OCc1coc(Cc2ccccc2)c1 [Compound 491] | 0.0028% | 0.08% | 9 µg
CC(C)C(=Nc1cccc(C(F)(F)F)c1)OCc1cccc(Oc2ccc(Br)cc2)n1 [Compound 493] | 0.0008% | 0.05% | 36 µg

— patent publication US5089623A, “Certain imidate insecticides” (Imperial Chemical Industries Plc, priority 1990, dated 1992)
